These results are taken from ChEMBL document CHEMBL1201862, “PubChem BioAssay data set” (2004).

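Exposure lasted 48 hours, with cells grown in 96-well plates and compounds tested at five concentrations. GI50: concentration for 50% inhibition of growth.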 Active and inactive are the calls of the source. Rule as the data show it: active = GI50 up to about 1.1 µM and inactive = higher.

Some test systems named below: 786-0; BT-549; DU-145; HCT-116; HCT-15; HOP-92; K562; MDA-N; NCI-H226; NCI/ADR-RES; OVCAR-4; OVCAR-8; PC-3; SF-268; SF-539; SK-MEL-28; SK-MEL-5; SK-OV-3; SNB-19; UACC-257.
What all share (assay): NCI tumour cell line growth inhibition, 48 h

Regarding `O=C(O)CN1C(=O)CN=C(c2ccccn2)c2cc(Cl)ccc21`, the GI50 in the test on 786-0 is > 100 µM (inactive); in the test with BT-549, > 100 µM (inactive); in the test with DU-145 it was > 100 µM (inactive); in the test on HCT-116 it was > 100 µM (inactive); in the test on HCT-15, > 100 µM; in the test on HOP-92 it was > 100 µM (inactive). The GI50 in the test with K562, in the test on MDA-N, in the test with NCI-H226, in the test with NCI/ADR-RES, with OVCAR-4 and in the test with OVCAR-8 was > 100 µM (inactive) each time. Besides, the GI50 with PC-3, in the test with SF-268, with SF-539, in the test with SK-MEL-28, in the test on SK-MEL-5 and with SK-OV-3 was > 100 µM (inactive) throughout. The GI50 in the test on SNB-19 and in the test on UACC-257 was > 100 µM (inactive) throughout.

Regarding `N=C(N)N/N=C(\c1ccc(F)cc1)c1ccc(C(F)(F)F)cc1`, the GI50 in the test with 786-0 was 0.294 µM (active); in the test with BT-549, 0.593 µM (active); in the test on DU-145, 0.538 µM (active); in the test on HCT-116, 0.104 µM (active); in the test with HCT-15, 0.294 µM; in the test on HOP-92, 1.46 µM (inactive). The GI50 is 0.132 µM (active) in the test with K562; 0.0748 µM (active) in the test with MDA-N; 0.348 µM (active) in the test with NCI-H226; 0.344 µM (active) with NCI/ADR-RES; 1.1 µM (active) with OVCAR-4; 0.376 µM (active) in the test with OVCAR-8. Moreover, the GI50 was 0.357 µM (active) with PC-3; 0.593 µM (active) in the test with SF-268; 0.27 µM (active) in the test on SF-539; 0.94 µM (active) in the test with SK-MEL-28; 0.466 µM (active) in the test with SK-MEL-5; 0.817 µM (active) in the test on SK-OV-3. In addition, the figures for the GI50 in the test with SNB-19 and in the test on UACC-257 were 0.573 µM (active) and 1.16 µM (inactive), respectively.

On to `O=S(=O)(/C=C/C=C/S(=O)(=O)c1ccccc1)c1ccccc1`, for which the GI50 is 0.537 µM (active) in the test on 786-0; 1.15 µM (inactive) in the test with BT-549; 14.6 µM (inactive) in the test on DU-145; 1.27 µM (inactive) in the test with HCT-116; 1.2 µM with HCT-15; 1.37 µM (inactive) in the test with HOP-92. Further, the GI50 in the test on K562 is 0.269 µM (active); in the test with MDA-N, 1.24 µM (inactive); in the test on NCI-H226, 7.62 µM (inactive); in the test with NCI/ADR-RES, 1.93 µM (inactive); in the test with OVCAR-4, 1.65 µM (inactive); in the test on OVCAR-8, 0.573 µM (active). The GI50 is 4.68 µM (inactive) in the test on PC-3; 1.7 µM (inactive) in the test on SF-268; 3.88 µM (inactive) in the test with SF-539; 1.32 µM (inactive) in the test on SK-MEL-28; 0.853 µM (active) in the test with SK-MEL-5; 8 µM (inactive) in the test with SK-OV-3. Besides, the GI50 was 17.5 µM (inactive) in the test with SNB-19 and 0.733 µM (active) in the test on UACC-257.

As to `O=C1c2c(Br)sc(Br)c2C(NC(=O)C(F)(F)F)C1O` (centres undefined), the GI50 with 786-0 was 19.3 µM (inactive); with BT-549, 19.4 µM (inactive); with DU-145 it was 20.5 µM (inactive); with HCT-116, 18.1 µM (inactive); in the test with HCT-15, 16.7 µM; in the test with HOP-92 it was 18.8 µM (inactive). For the same compound, the GI50 is 12.1 µM (inactive) with K562; 19.1 µM (inactive) in the test with MDA-N; 29.5 µM (inactive) with NCI-H226; 29.1 µM (inactive) in the test with NCI/ADR-RES; 19.9 µM (inactive) in the test on OVCAR-4; 20.3 µM (inactive) with OVCAR-8. Moreover, the GI50 in the test on PC-3 was 26.1 µM (inactive); in the test with SF-268, 34 µM (inactive); with SF-539, 15.7 µM (inactive); in the test on SK-MEL-28 it was 21.8 µM (inactive); with SK-MEL-5, 19.5 µM (inactive); in the test with SK-OV-3, 19.3 µM (inactive). Besides, the GI50 was 24.4 µM (inactive) in the test with SNB-19 and 19.3 µM (inactive) with UACC-257.

Turning to `O=c1[nH]nc(-c2ccccc2)n1/N=C\CC/C=N\n1c(-c2ccccc2)n[nH]c1=O`, the GI50 with 786-0 was 26.5 µM (inactive); in the test on BT-549 it was 19.2 µM (inactive); with DU-145, > 59.2 µM (inactive); in the test on HCT-116, 24.2 µM (inactive); in the test with HCT-15, 21.4 µM; in the test with HOP-92 it was 25.5 µM (inactive). Further, the GI50 in the test with K562 is 31.1 µM (inactive); in the test on MDA-N it was 20 µM (inactive); in the test with NCI-H226, 24.5 µM (inactive); in the test with NCI/ADR-RES, 38.5 µM (inactive); in the test with OVCAR-4 it was 52.4 µM (inactive); in the test on OVCAR-8 it was 30.1 µM (inactive). The GI50 in the test on PC-3 was 28.1 µM (inactive); in the test with SF-268 it was 26.1 µM (inactive); in the test with SF-539 it was 27.4 µM (inactive); in the test on SK-MEL-28, 23 µM (inactive); in the test on SK-MEL-5 it was 21.6 µM (inactive); with SK-OV-3 it was 28.6 µM (inactive). In addition, the values for the GI50 in the test on SNB-19 and with UACC-257 were 45.1 µM (inactive) and > 82.2 µM (inactive), respectively.

On to `O=C(O)/C=C(/C(=O)O)C12CCN3CC4=CCOC5CC(=O)NC1C5C4CC32` (centres undefined), for which the GI50 with 786-0 is > 100 µM (inactive); in the test on BT-549 it was > 100 µM (inactive); with DU-145 it was > 100 µM (inactive); with HCT-116 it was > 100 µM (inactive); with HCT-15, > 100 µM; in the test on HOP-92, > 100 µM (inactive). The GI50 with K562, in the test on MDA-N, with NCI-H226, in the test on NCI/ADR-RES, with OVCAR-4 and in the test with OVCAR-8 was > 100 µM (inactive) each time. The GI50 in the test with PC-3, in the test with SF-268, in the test on SF-539, in the test with SK-MEL-28, in the test with SK-MEL-5 and in the test on SK-OV-3 was > 100 µM (inactive) each time. The GI50 in the test with SNB-19 and in the test with UACC-257 was > 100 µM (inactive) throughout.

Take `COC(=O)C1=CC2CCCC1(O)C(C(C)=O)C2` (centres undefined): the GI50 was 20.2 µM (inactive) with 786-0; > 95.7 µM (inactive) with BT-549; > 69.7 µM (inactive) in the test on DU-145; 62.1 µM (inactive) in the test with HCT-116; > 66.5 µM in the test on HCT-15; 41.4 µM (inactive) with HOP-92. In addition, the GI50 in the test on K562 was 34 µM (inactive); in the test with MDA-N, 97.9 µM (inactive); in the test with NCI-H226, > 100 µM (inactive); in the test on NCI/ADR-RES it was > 63.2 µM (inactive); with OVCAR-4 it was > 62.7 µM (inactive); in the test with OVCAR-8 it was 44.4 µM (inactive). Also, the GI50 was 61.2 µM (inactive) with PC-3; > 21.7 µM (inactive) in the test on SF-268; 11.6 µM (inactive) in the test with SF-539; > 100 µM (inactive) in the test on SK-MEL-28; > 100 µM (inactive) in the test on SK-MEL-5; > 100 µM (inactive) in the test with SK-OV-3. Further, the GI50 in the test on SNB-19 and in the test on UACC-257 was > 100 µM (inactive) each time.

Regarding `CNC(=O)NC(CCCCNC(=O)OCc1ccccc1)C(=O)OCc1ccccc1` (centres undefined), the GI50 is 80.2 µM (inactive) in the test with 786-0; > 78.2 µM (inactive) with BT-549; > 100 µM (inactive) with DU-145; 81.8 µM (inactive) in the test with HCT-116; > 96.8 µM in the test with HCT-15; 16.6 µM (inactive) with HOP-92. Moreover, the GI50 in the test on K562 was 31.3 µM (inactive); in the test with MDA-N it was 19.5 µM (inactive); in the test on NCI-H226, 42.9 µM (inactive); in the test on NCI/ADR-RES it was > 100 µM (inactive); in the test with OVCAR-4, 76.4 µM (inactive); with OVCAR-8, 61.4 µM (inactive). In addition, the GI50 in the test on PC-3 was 45.1 µM (inactive); with SF-268, 57.3 µM (inactive); with SF-539, 30.3 µM (inactive); in the test with SK-MEL-28, 19.8 µM (inactive); in the test on SK-MEL-5, 15.9 µM (inactive); in the test with SK-OV-3, > 100 µM (inactive). In addition, the GI50 with SNB-19 was > 100 µM (inactive); in the test with UACC-257, 16.9 µM (inactive).

`C=C1C(=O)O[C@@H]2[C@H]1C[C@@H](O)[C@H](C)[C@@](O)(C(=O)/C=C/C)[C@H]2OC(=O)C(C)CC` (some centres undefined): the GI50 in the test with 786-0 was 2.61 µM (inactive); in the test on BT-549, 5.45 µM (inactive); in the test with DU-145 it was 4.27 µM (inactive); in the test with HCT-116, 1.84 µM (inactive); with HCT-15, 2.44 µM; in the test with HOP-92, 3.21 µM (inactive). Further, the GI50 was 2.28 µM (inactive) with K562; 3.08 µM (inactive) with MDA-N; 43.4 µM (inactive) in the test with NCI-H226; 11 µM (inactive) in the test on NCI/ADR-RES; 6.97 µM (inactive) in the test on OVCAR-4; 2.22 µM (inactive) in the test with OVCAR-8. The GI50 in the test with PC-3 is 16.5 µM (inactive); in the test on SF-268, 15.4 µM (inactive); in the test on SF-539 it was 7.33 µM (inactive); with SK-MEL-28 it was 7.85 µM (inactive); in the test on SK-MEL-5 it was 7.28 µM (inactive); with SK-OV-3 it was 42.2 µM (inactive). For the same compound, the GI50 in the test with SNB-19 was > 46.3 µM (inactive); with UACC-257, 3.1 µM (inactive).

For the compound `O=[N+]([O-])c1ccc(N2N=C(c3ccc4ccccc4c3O)CC2c2ccc(Cl)cc2)c([N+](=O)[O-])c1` (centres undefined), the GI50 in the test on 786-0 is 44 µM (inactive); in the test with BT-549, > 100 µM (inactive); with DU-145 it was 48.8 µM (inactive); in the test with HCT-116, 28 µM (inactive); in the test with HCT-15, 30.3 µM; with HOP-92 it was 33 µM (inactive). Further, the GI50 in the test with K562 was 14.5 µM (inactive); in the test on MDA-N it was 16.7 µM (inactive); in the test with NCI-H226, 50.8 µM (inactive); in the test with NCI/ADR-RES, 30.6 µM (inactive); in the test on OVCAR-4, 55.1 µM (inactive); in the test with OVCAR-8, 37.3 µM (inactive). In addition, the GI50 was 23.8 µM (inactive) with PC-3; 45.7 µM (inactive) in the test with SF-268; 32.3 µM (inactive) with SF-539; 41.8 µM (inactive) in the test with SK-MEL-28; 22.2 µM (inactive) in the test with SK-MEL-5; 80.2 µM (inactive) with SK-OV-3. Besides, in the test with UACC-257, the GI50 was 32.1 µM (inactive).
